# Experimental data reported in patent publication US20240294478A1, “ANTI-CANCER COMPOUNDS AND METHODS OF USE” (YALE UNIVERSITY, priority 2021, published 2024).
# Tests used:
# [1] = test system: PD20 cells, deficient in FANCD2 (FANCD2−/−) or complemented with FANCD2; test: Short-term viability assay, PD20 cells; assay type: cell-based, human; details: PD20 FANCD2−/− vs +FANCD2
# Protocol: (§1) FIGS. 8A-8K. (FIG. 8A) Change in percent cells with 1 micronuclei from baseline (DMSO control) after treatment as in FIGS. 5A and 5C. […] (FIG. 8B) Short-term viability assay curves for KL-50 in PD20 cells, deficient in FANCD2 (FANCD2−/−) or complemented with FANCD2 (+FANCD2). (FIG. 8C) Short-term viability assay curves for KL-50 in PEO4 (BRCA2+) and PEO1 (BRCA2−/−) cells pre-treated with 0.01% DMSO control or 10 μM O^6BG (+O^6BG) for 1 h prior to KL-50 addition. (FIG. 8D) Short-term viability assay curves for KL-50 in DLD1 BRCA2+/− and BRCA2−/−cells pre-treated with 0.01% DMSO control or 10 μM O^6BG (+O^6BG) for 1 h prior to KL-50 addition. For FIGS. 8B-8D, points, mean; error bars, SD; n=3 technical replicates. […] Change in percent cells with 1 micronuclei from baseline (DMSO control) after treatment with olaparib (10 μM) for 48 h in LN229 MGMT+/−, MMR+/−cells. […] Western blot analysis of FANCD2 ubiquitination in LN229 MGMT+/−, MMR+/−cells and PD20 FANCD2-deficient cells, complemented with empty vector (FANCD2+EV), wildtype FANCD2 (PD20+FD2) or ubiquitination-mutant FANCD2 (PD20+KR). The % FANCD2 ubiquitination (% FANCD2 Ub) is quantified as the background-corrected integrated band intensity of the upper band divided by the sum of the background-corrected integrated band intensities of the upper and lower bands. The fold change in % FANCD2 ubiquitination is presented for each cell line relative to DMSO-treated cells. Vinculin serves as loading control. For 8J-8K, points, mean; error bars, SD; n=3 technical replicates.
# (§2) Short-term Cell Viability Assay. Cells were seeded in 96-well plates at 1000 or 2000 cells/well and allowed to adhere at 23° C. for 60 min and then incubated overnight at 37° C. […] Cells were imaged on a Cytation 3 imaging reader (BioTek) and quantified using CellProfiler software. For in vitro short-term growth delay experiments, IC50 values were determined from the nonlinear regression equation, [inhibitor] vs normalized response with variable slope.
# [2] = test system: linearized pUC19 plasmid DNA; test: Melting temperature assay; assay type: biochemical; details: 100 or 500 μM for 3 h
# Protocol: Columns, mean; error bars, SD; n=2 independent analyses. For (A) and (C), points, mean; error bars, SD; n=3 technical replicates.
# Melting Temperature Assay. Linearized pUC19 DNA (750 ng), prepared as described above, was incubated with the indicated concentration of either MMS or KL-50 adjusted in a final volume of 18 μL in 100 mM Tris buffer (pH 7.4) for 3 h. Drug stock concentrations were made in DMSO such that each reaction contained a fixed 5% DMSO concentration. Afterwards, 1 μL each of 20×SYBR Green dye (Invitrogen) and 20×ROX reference dye (Invitrogen) was added and melting temperature analysis was run on a StepOnePlus RT PCR System (Applied Biosciences) to generate melting temperature curves.
# [3] = test system: DLD1 BRCA2+/− and BRCA2−/− cells; test: Short-term viability assay, DLD1 BRCA2 isogenic model +/- O6BG; assay type: cell-based, human; details: DLD1 isogenic model
# Protocol: as §1, §2
# [4] = test system: PEO4 (BRCA2+) and PEO1 (BRCA2−/−) cells; test: Short-term viability assay, PEO1/PEO4 model +/- O6BG; assay type: cell-based, human; details: PE01/4 model
# Protocol: FIGS. 8A-8K. (FIG. 8A) Change in percent cells with 1 micronuclei from baseline (DMSO control) after treatment as in FIGS. 5A and 5C. […] (FIG. 8B) Short-term viability assay curves for KL-50 in PD20 cells, deficient in FANCD2 (FANCD2−/−) or complemented with FANCD2 (+FANCD2). (FIG. 8C) Short-term viability assay curves for KL-50 in PEO4 (BRCA2+) and PEO1 (BRCA2−/−) cells pre-treated with 0.01% DMSO control or 10 μM O^6BG (+O^6BG) for 1 h prior to KL-50 addition. (FIG. 8D) Short-term viability assay curves for KL-50 in DLD1 BRCA2+/− and BRCA2−/−cells pre-treated with 0.01% DMSO control or 10 μM O^6BG (+O^6BG) for 1 h prior to KL-50 addition. For FIGS. 8B-8D, points, mean; error bars, SD; n=3 technical replicates. […] The % FANCD2 ubiquitination (% FANCD2 Ub) is quantified as the background-corrected integrated band intensity of the upper band divided by the sum of the background-corrected integrated band intensities of the upper and lower bands. […]
# Short-term Cell Viability Assay. […] Cells were imaged on a Cytation 3 imaging reader (BioTek) and quantified using CellProfiler software. For in vitro short-term growth delay experiments, IC50 values were determined from the nonlinear regression equation, [inhibitor] vs normalized response with variable slope.
smiles,measurement,setting,value
"CO[C@@]12[C@H](COC(N)=O)C3=C(C(=O)C(C)=C(N)C3=O)N1C[C@@H]1N[C@@H]12 [MMC, Mitomycin C]",sensitivity of FANCD2-deficient cells,[1],hypersensitivity to crosslinking agents in FANCD2−/−cells
"COS(C)(=O)=O [MMS, Methylmethane sulfonate, reference compound]",change in DNA melting temperature,[2],comparable changes in measured DNA melting temperature
"N.N.[Cl][Pt][Cl] [cisplatin, reference compound]",sensitivity of FANCD2-deficient cells,[1],hypersensitivity to crosslinking agents in FANCD2−/−cells
same,"therapeutic index (TI), ratio of IC50 values in MGMT+/BRCA2+ cells compared to MGMT−/BRCA2− cells",[3],42 fold
same,therapeutic index (TI),[4],13 fold
